Tests used:
Format in all cases: in vivo
[1] = test system: corn; experiment: Test Example 5: effect on crop by foliage application, plastic box (symbol c); details: 320 g/ha, 3 weeks after application
Method in brief: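 Crop and weed seeds sown in spots in sterilized diluvial soil in plastic boxes and covered with about 1.5 cm soil. Plants raised in a greenhouse at 25° C. to 30° C. for foliar application.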

[2] = test system: Lolium multiflorum Lam.; experiment: Test Example 5: herbicidal effect by foliage application, plastic box (symbol K); details: 320 g/ha, 3 weeks after application
Method in brief: (§1)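 Seeds were sown in sterilized diluvial soil, covered with about 1.5 cm of soil and grown 14 days in a greenhouse at 25° C. to 30° C. An emulsifiable formulation diluted in water to a set rate was sprayed over foliage, and injury was scored 3 weeks later.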

[3] = test system: directly sowed rice plant; experiment: Test Example 3: effect on crop by foliage application, Wagner pot (symbol b); details: application herbicide amount 320 g/ha
Method in brief: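 Alluvial soil in a 1/10000-are Wagner pot was flooded to a water depth of 0.1–0.5 cm. Echinochloa crus-galli var. crus-galli, Leptochloa chinensis, Cyperus difformis and rice were sown into it and grown in a greenhouse at 25–30 °C.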

[4] = test system: soybean; experiment: Test Example 4: effect on crop by soil treatment (symbol d); details: application herbicide amount 320 g/ha
Method in brief: (§2)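 Crop seeds, among them rice, wheat, beet and rapeseed, were sown in sterilized diluvial soil and covered with about 1.5 cm of soil. Boxes were kept in a greenhouse at 25° C. to 30° C. for plant growth.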

[5] = test system: Echinochloa oryzacola Vasing.; experiment: Test Example 1: herbicidal activity, application before weed generation in submerged conditions (symbol A); details: application herbicide amount 320 g/ha
Method in brief: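 Weeds are sown into submerged alluvial soil alongside transplanted 2.5-leaf rice, and the compound, as an emulsion diluted to a set rate, is applied onto the water before emergence. Rating on the 0–5 herbicidal-ratio scale follows 3 weeks of greenhouse growth at 25–30 °C.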

[6] = test system: wheat; experiment: Test Example 4: effect on crop by soil treatment (symbol e); details: application herbicide amount 320 g/ha
Method in brief: as §2

[7] = test system: Avena fatua; experiment: Test Example 5: herbicidal effect by foliage application, plastic box (symbol I); details: 320 g/ha, 3 weeks after application
Method in brief: as §1

[8] = test system: Cyperus difformis; experiment: Test Example 3: herbicidal effect by foliage application, Wagner pot (symbol E); details: application herbicide amount 320 g/ha
Method in brief: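 Plants sown in submerged alluvial soil (water depth 0.1–0.5 cm) in a 25–30 °C greenhouse and grown 14 days. An emulsion of the compound diluted in water to a set herbicide amount was sprayed uniformly on foliage. Effect on each plant scored 3 weeks after application.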

[9] = test system: Monochoria vaginalis; experiment: Test Example 2: herbicidal activity, application during weed generation in submerged conditions (symbol C); details: Table 23; application herbicide amount 320 g/ha; grade 0-5 by criteria of Test Example 1
Method in brief: (§3)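 Seeds sown in flooded alluvial soil (4 cm water) were grown in a 25-30° C greenhouse. At the one- to two-leaf stage, diluted emulsion of compound was applied to the water surface at a predetermined rate. Effect was scored 3 weeks later.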

[10] = test system: rice; experiment: Test Example 4: effect on crop by soil treatment (symbol b); details: application herbicide amount 320 g/ha
Method in brief: as §2

[11] = test system: Scirpus juncoides; experiment: Test Example 2: herbicidal activity, application during weed generation in submerged conditions (symbol B); details: Table 23; application herbicide amount 320 g/ha; grade 0-5 by criteria of Test Example 1
Method in brief: as §3

[12] = test system: transplanted rice plant; experiment: Test Example 1: effect on crop, application before weed generation in submerged conditions (symbol a); details: application herbicide amount 320 g/ha
Method in brief: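 Alluvial soil pots flooded to 4 cm water, sown with Echinochloa oryzacola, Scirpus juncoides and Monochoria vaginalis, then transplanted with 2.5 leaf stage rice seedlings; pre-emergence application. Greenhouse 25° C. to 30° C.; scored 0–5 by herbicidal ratio 3 weeks after application.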

[13] = test system: Chenopodium album; experiment: Test Example 5: herbicidal effect by foliage application, plastic box (symbol O); details: 320 g/ha, 3 weeks after application
Method in brief: as §1

Row | Compound | c: corn, effect on crop grade [1] | K: Lolium multiflorum Lam., herbicidal effect grade [2] | effect on crop b (directly sowed rice plant), grade 0-5 [3] | d (soybean) effect on crop grade [4] | Herbicidal effect grade, A: Echinochloa oryzacola Vasing. [5] | e (wheat) effect on crop grade [6] | I: Avena fatua, herbicidal effect grade [7] | herbicidal effect on E, grade 0-5 [8] | Herbicidal effect grade, C: Monochoria vaginalis [9] | b (directly sowed rice plant) effect on crop grade [10] | Herbicidal effect grade, B: Scirpus juncoides [11] | Effect grade on crop, a: transplanted rice plant [12] | O: Chenopodium album, herbicidal effect grade [13]
1 | CSCCON=C(C)CC1CC(O)=C(c2c(C)cc(C)cc2C)C1=O (centres unmarked) [1-029] | 3 (Herbicidal ratio of 40% or higher and lower than 70%) | 5 (Herbicidal ratio of 90% or more (almost completely withered)) | 5 (Herbicidal ratio of 90% or more (almost completely withered)) | 0 (Herbicidal ratio of 5% or lower (almost no effect)) | 4 (Herbicidal ratio of 70% or higher and lower than 90%) | 0 (Herbicidal ratio of 5% or lower (almost no effect)) | 5 (Herbicidal ratio of 90% or more (almost completely withered)) | 4 (Herbicidal ratio of 70% or higher and lower than 90%) | 0 (Herbicidal ratio of 5% or lower (almost no effect)) | 5 (Herbicidal ratio of 90% or more (almost completely withered)) | 0 (Herbicidal ratio of 5% or lower (almost no effect)) | 5 (Herbicidal ratio of 90% or more (almost completely withered)) | 3 (Herbicidal ratio of 40% or higher and lower than 70%)
2 | CON=CC(C)(C)C1CC(O)=C(c2c(C)cc(C)cc2C)C1=O (centres unmarked) [1-030] | 1 (Herbicidal ratio of 5% or higher and lower than 20%) | 5 (Herbicidal ratio of 90% or more (almost completely withered)) | 5 (Herbicidal ratio of 90% or more (almost completely withered)) | 0 (Herbicidal ratio of 5% or lower (almost no effect)) | 2 (Herbicidal ratio of 20% or higher and lower than 40%) | 0 (Herbicidal ratio of 5% or lower (almost no effect)) | 3 (Herbicidal ratio of 40% or higher and lower than 70%) | 3 (Herbicidal ratio of 40% or higher and lower than 70%) | 0 (Herbicidal ratio of 5% or lower (almost no effect)) | 4 (Herbicidal ratio of 70% or higher and lower than 90%) | 0 (Herbicidal ratio of 5% or lower (almost no effect)) | 1 (Herbicidal ratio of 5% or higher and lower than 20%) | 0 (Herbicidal ratio of 5% or lower (almost no effect))
3 | CON=C(C)CC1CC(OCC#C[Si](C)(C)C)=C(c2c(C)cc(C)cc2C)C1=O (centres unmarked) [1-031] | 0 (Herbicidal ratio of 5% or lower (almost no effect)) | 4 (Herbicidal ratio of 70% or higher and lower than 90%) | 5 (Herbicidal ratio of 90% or more (almost completely withered)) | 0 (Herbicidal ratio of 5% or lower (almost no effect)) | 5 (Herbicidal ratio of 90% or more (almost completely withered)) | 0 (Herbicidal ratio of 5% or lower (almost no effect)) | 3 (Herbicidal ratio of 40% or higher and lower than 70%) | 0 (Herbicidal ratio of 5% or lower (almost no effect)) | 0 (Herbicidal ratio of 5% or lower (almost no effect)) | 0 (Herbicidal ratio of 5% or lower (almost no effect)) | 2 (Herbicidal ratio of 20% or higher and lower than 40%) | 0 (Herbicidal ratio of 5% or lower (almost no effect)) | 0 (Herbicidal ratio of 5% or lower (almost no effect))
4 | CON=C(C)C(C)C1CC(O)=C(c2c(C)cc(C)cc2C)C1=O (centres unmarked) [1-032] | 5 (Herbicidal ratio of 90% or more (almost completely withered)) | 5 (Herbicidal ratio of 90% or more (almost completely withered)) | 5 (Herbicidal ratio of 90% or more (almost completely withered)) | 0 (Herbicidal ratio of 5% or lower (almost no effect)) | 5 (Herbicidal ratio of 90% or more (almost completely withered)) | 5 (Herbicidal ratio of 90% or more (almost completely withered)) | 5 (Herbicidal ratio of 90% or more (almost completely withered)) | 5 (Herbicidal ratio of 90% or more (almost completely withered)) | 3 (Herbicidal ratio of 40% or higher and lower than 70%) | 5 (Herbicidal ratio of 90% or more (almost completely withered)) | 4 (Herbicidal ratio of 70% or higher and lower than 90%) | 5 (Herbicidal ratio of 90% or more (almost completely withered)) | 3 (Herbicidal ratio of 40% or higher and lower than 70%)
5 | CON=C(C)CC1CC(OC(=O)C(C)(C)OC(C)=O)=C(c2c(C)cc(C)cc2C)C1=O (centres unmarked) [1-034] | 4 (Herbicidal ratio of 70% or higher and lower than 90%) | 5 (Herbicidal ratio of 90% or more (almost completely withered)) | 5 (Herbicidal ratio of 90% or more (almost completely withered)) | 0 (Herbicidal ratio of 5% or lower (almost no effect)) | 5 (Herbicidal ratio of 90% or more (almost completely withered)) | 4 (Herbicidal ratio of 70% or higher and lower than 90%) | 5 (Herbicidal ratio of 90% or more (almost completely withered)) | 5 (Herbicidal ratio of 90% or more (almost completely withered)) | 3 (Herbicidal ratio of 40% or higher and lower than 70%) | 5 (Herbicidal ratio of 90% or more (almost completely withered)) | 3 (Herbicidal ratio of 40% or higher and lower than 70%) | 5 (Herbicidal ratio of 90% or more (almost completely withered)) | 5 (Herbicidal ratio of 90% or more (almost completely withered))
